From US20250092017A1, “2-PIPERIDYL OR 2-PYRAZOLYL SUBSTITUTED PYRIMIDINE COMPOUND SERVING AS EGFR INHIBITOR” (SUZHOU PUHE BIOPHARMA CO., LTD., priority 2022, published 2025)

Tests used:
[1] = target: EGFR (L858R/T790M/C797S) (Homo sapiens, UniProt P00533, C797S/L858R/T790M); test: MSA (Mobility Shift Assay) kinase activity, EGFR-L858R-T790M-C797S; assay type: biochemical
Experimental: (§1) The MSA (Mobility Shift Assay) method was used to detect the effects of small molecule inhibitors on the kinase activity of EGFR wild type and its mutants (EGFR^wt, EGFR-L858R, EGFR-L858R-T790M-C797S, EGFR-L858R-C797S).
(§2) 10 μL of kinase solution at 2.5 times the final concentration was added to the compound wells and positive control Max wells; 10 μL of 1x kinase buffer was added to the negative control Min wells. The mixture was centrifuged at 1000 rpm for 30 seconds, and the reaction plate was shaken to mix the solution well and then incubated at room temperature for 10 minutes. A mixed solution of ATP and kinase substrate at 5/3 times the final concentration was prepared in 1x kinase buffer. 15 μL of a mixed solution of ATP and substrate at 5/3 times the final concentration was added to initiate the reaction. The 384-well plate was centrifuged at 1000 rpm for 30 seconds, and shaken to mix the solution well and then incubated at room temperature for the corresponding time. 30 μL of stop detection solution was added to stop the kinase reaction, and the mixture was centrifuged at 1000 rpm for 30 seconds, and then to mixed well by shaking. The conversion rate was read using Caliper EZ Reader.
(§3) wherein: Conversion %_sample is the conversion rate reading of the sample; Conversion %_min is the mean of the negative control wells, representing the conversion rate reading of the wells without enzyme activity; Conversion %_max is the mean of the positive control wells, representing the conversion rate reading of the wells without compound inhibition.
(§4) The log (inhibitor) vs. response —Variable slope of the analysis software GraphPad Prism 5 was used to fit the dose-effect curve, where the log value of the concentration was used as the X-axis and the percentage inhibition rate was used as the Y-axis, to obtain the IC50 value of each compound on the enzyme activity.
(§5) The calculation formula is Y=Bottom+(Top-Bottom)/(1+10^((Log IC50−X)*Hill Slope))

[2] = target: EGFR (L858R) (Homo sapiens, UniProt P00533, L858R); test: MSA (Mobility Shift Assay) kinase activity, EGFR-L858R; assay type: biochemical
Experimental: as §1, §2, §3, §4, §5

[3] = target: EGFR (wild-type) (Homo sapiens, UniProt P00533); test: MSA (Mobility Shift Assay) kinase activity, EGFR wild type; assay type: biochemical; conditions: read-out: EGFR wt/ IC50/nM
Experimental: as §1, §2, §3, §4, §5

[4] = target: EGFR (L858R/C797S) (Homo sapiens, UniProt P00533, C797S/L858R); test: MSA (Mobility Shift Assay) kinase activity, EGFR-L858R-C797S; assay type: biochemical
Experimental: as §1, §2, §3, §4, §5

[5] = target: Ba/F3-FL-EGFR-L858R-T790M-C797S (Homo sapiens, UniProt P00533, T790M/C797S/L858R, cells depend on it); test: CellTiter-Glo proliferation, Ba/F3-FL-EGFR-L858R-T790M-C797S; assay type: cell-based; conditions: 72 hours, read-out: Ba/F3-FL-EGFR-L858R-T790M-C797S IC50/nM
Experimental: (§6) Promega CellTiter-Glo reagent was used to detect the effects of small molecule inhibitors on the proliferation of five Ba/F3 cell lines (Ba/F3-FL-EGFR, Ba/F3-FL-EGFR-L858R, Ba/F3-FL-EGFR-L858R-T790M-C797S, Ba/F3-TEL-EGFR-L858R-C797S and Ba/F3-FL-EGFR-del19-C797S).
(§7) The cell lines were cultured in an incubator at 37° C. and 5% CO2. Cells were passaged regularly and cells in the logarithmic phase were used for plating. 95 μL of cell suspension was added to each well of the cell plate, and culture medium without cells (containing 0.1% DMSO) was added to the Min control wells. Substance addition for compound detection cell plate: 5 μL of 20× compound working solution was added to the cell culture plate as shown in the table below. 50 μL of DMSO-cell culture medium mixture was added to the Max control, with the final DMSO concentration of 0.1%. 5 μL of DMSO-cell culture medium mixture was added to the Max control. The final DMSO concentration was 0.1%.
(§8) The compounds to be tested were added as per the table below
(§9) Cell viability was detected by CellTiter-Glo luminescence assay. Data analysis:
(§10) The cell proliferation inhibition rate (Inhibition Rate) data was processed using the following formula: […]
(§11) wherein: RLUDrug represents the relative luminescence unit of the cells with the addition of drug, RLUMin represents the luminescence unit of the culture medium, and RLUMax represents the relative luminescence unit of the cells with the addition of DMSO.
(§12) The inhibition rates corresponding to different concentrations of compounds were calculated in EXCEL, and then the inhibition rate curve was plotted using GraphPad Prism software and related parameters including the maximum and minimum inhibition rates of cells and IC50 values were calculated.

[6] = target: T1, Ba/F3-FL-EGFR (Homo sapiens, UniProt P00533); test: CellTiter-Glo proliferation, Ba/F3-FL-EGFR; assay type: cell-based; conditions: 72 hours, read-out: Ba/F3-FL-EGFR IC50/nM
T1 construct: FL read as full length
Experimental: as §6, §7, §8, §9, §10, §11, §12

[7] = target: Ba/F3-FL-EGFR-L858R (Homo sapiens, UniProt P00533, L858R, cells depend on it); test: CellTiter-Glo proliferation, Ba/F3-FL-EGFR-L858R; assay type: cell-based; conditions: 72 hours, read-out: Ba/F3-FL-EGFR-L858R IC50/nM
Experimental: as §6, §7, §8, §9, §10, §11, §12

[8] = target: T2, Ba/F3-TEL-EGFR-L858R-C797S (Homo sapiens, UniProt P00533, C797S/L858R, cells depend on it); test: CellTiter-Glo proliferation, Ba/F3-TEL-EGFR-L858R-C797S; assay type: cell-based; conditions: 72 hours, read-out: Ba/F3-TEL-EGFR-L858R-C797S IC50/nM
T2 construct: fused on or other part: N-terminal TEL (ETV6) oligomerising part fused to the EGFR intracellular/kinase part; P41212 (Transcription factor ETV6)
Experimental: as §6, §7, §8, §9, §10, §11, §12

[9] = system: Ba/F3-FL-EGFR-del19-C797S; test: CellTiter-Glo proliferation, Ba/F3-FL-EGFR-del19-C797S; assay type: cell-based; conditions: 72 h, proliferation, 72 hours, CellTiter-Glo; read-out: Ba/F3-FL-EGFR-del19-C797S IC50/nM
Experimental: as §6, §7, §8, §9, §10, §11, §12

Chain of Ba/F3-FL-EGFR-L858R-T790M-C797S (P00533 whole entry T790M/C797S/L858R): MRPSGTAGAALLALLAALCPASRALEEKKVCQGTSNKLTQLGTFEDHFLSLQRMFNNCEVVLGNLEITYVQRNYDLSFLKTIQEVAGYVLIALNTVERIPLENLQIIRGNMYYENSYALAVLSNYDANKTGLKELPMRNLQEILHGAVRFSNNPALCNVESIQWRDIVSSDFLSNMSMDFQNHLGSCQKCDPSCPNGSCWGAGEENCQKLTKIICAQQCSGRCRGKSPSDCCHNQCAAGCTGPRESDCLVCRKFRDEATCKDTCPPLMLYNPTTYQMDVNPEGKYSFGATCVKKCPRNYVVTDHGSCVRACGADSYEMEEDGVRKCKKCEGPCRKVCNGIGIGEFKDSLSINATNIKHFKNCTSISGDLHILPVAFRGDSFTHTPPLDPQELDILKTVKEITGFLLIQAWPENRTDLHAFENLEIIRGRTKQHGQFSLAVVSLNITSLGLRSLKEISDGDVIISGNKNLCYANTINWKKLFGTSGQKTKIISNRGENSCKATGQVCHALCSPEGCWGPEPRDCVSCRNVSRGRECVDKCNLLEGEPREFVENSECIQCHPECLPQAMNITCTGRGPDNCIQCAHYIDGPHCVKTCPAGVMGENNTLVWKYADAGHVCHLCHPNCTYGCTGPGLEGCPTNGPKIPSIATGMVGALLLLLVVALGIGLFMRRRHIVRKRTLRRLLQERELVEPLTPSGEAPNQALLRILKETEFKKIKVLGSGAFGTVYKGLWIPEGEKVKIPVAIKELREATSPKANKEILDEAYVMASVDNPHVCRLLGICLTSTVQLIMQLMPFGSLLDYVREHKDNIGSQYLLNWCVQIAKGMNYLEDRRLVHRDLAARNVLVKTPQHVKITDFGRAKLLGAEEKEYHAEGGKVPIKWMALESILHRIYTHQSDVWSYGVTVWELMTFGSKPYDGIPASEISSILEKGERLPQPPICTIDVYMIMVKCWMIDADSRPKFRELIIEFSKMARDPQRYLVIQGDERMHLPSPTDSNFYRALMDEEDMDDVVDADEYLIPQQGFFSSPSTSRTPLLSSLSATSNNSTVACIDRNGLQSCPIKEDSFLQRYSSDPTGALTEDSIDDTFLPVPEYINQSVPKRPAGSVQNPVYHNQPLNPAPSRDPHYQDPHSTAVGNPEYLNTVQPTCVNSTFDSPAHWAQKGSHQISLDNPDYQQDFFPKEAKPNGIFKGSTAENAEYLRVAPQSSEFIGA
T2 sequence (P00533 whole entry C797S/L858R, the tested form may be a part): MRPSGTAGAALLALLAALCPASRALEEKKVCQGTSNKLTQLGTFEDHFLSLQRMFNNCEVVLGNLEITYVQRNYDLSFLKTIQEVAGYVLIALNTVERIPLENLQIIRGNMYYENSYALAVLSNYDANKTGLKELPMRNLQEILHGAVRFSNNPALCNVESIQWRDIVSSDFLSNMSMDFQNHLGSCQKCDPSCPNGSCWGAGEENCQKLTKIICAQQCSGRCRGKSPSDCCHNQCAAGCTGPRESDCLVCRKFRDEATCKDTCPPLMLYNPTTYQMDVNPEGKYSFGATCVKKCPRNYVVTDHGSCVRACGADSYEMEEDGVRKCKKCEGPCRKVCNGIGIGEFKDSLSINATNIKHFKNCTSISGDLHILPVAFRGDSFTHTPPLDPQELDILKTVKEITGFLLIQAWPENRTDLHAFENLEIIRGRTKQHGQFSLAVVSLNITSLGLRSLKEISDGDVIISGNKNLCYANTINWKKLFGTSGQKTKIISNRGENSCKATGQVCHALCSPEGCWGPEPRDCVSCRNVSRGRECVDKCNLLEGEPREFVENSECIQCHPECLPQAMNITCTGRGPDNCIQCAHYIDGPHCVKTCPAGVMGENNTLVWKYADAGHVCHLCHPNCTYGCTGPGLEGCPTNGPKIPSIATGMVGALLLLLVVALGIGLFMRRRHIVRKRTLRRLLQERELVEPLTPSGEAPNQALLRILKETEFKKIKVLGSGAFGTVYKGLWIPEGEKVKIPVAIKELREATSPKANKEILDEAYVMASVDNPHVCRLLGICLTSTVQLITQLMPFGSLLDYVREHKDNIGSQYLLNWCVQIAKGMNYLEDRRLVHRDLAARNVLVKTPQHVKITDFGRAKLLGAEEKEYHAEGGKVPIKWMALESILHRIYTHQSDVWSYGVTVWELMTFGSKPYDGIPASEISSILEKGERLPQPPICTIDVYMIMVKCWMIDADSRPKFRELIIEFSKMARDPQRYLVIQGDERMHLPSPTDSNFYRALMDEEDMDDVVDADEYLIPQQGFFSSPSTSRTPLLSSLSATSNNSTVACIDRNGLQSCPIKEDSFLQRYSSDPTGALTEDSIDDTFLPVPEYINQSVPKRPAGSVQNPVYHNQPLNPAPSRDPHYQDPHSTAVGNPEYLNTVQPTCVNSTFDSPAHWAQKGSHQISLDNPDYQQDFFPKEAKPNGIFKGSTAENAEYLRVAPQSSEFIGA
Chain of EGFR (L858R) (P00533 25-1210 L858R): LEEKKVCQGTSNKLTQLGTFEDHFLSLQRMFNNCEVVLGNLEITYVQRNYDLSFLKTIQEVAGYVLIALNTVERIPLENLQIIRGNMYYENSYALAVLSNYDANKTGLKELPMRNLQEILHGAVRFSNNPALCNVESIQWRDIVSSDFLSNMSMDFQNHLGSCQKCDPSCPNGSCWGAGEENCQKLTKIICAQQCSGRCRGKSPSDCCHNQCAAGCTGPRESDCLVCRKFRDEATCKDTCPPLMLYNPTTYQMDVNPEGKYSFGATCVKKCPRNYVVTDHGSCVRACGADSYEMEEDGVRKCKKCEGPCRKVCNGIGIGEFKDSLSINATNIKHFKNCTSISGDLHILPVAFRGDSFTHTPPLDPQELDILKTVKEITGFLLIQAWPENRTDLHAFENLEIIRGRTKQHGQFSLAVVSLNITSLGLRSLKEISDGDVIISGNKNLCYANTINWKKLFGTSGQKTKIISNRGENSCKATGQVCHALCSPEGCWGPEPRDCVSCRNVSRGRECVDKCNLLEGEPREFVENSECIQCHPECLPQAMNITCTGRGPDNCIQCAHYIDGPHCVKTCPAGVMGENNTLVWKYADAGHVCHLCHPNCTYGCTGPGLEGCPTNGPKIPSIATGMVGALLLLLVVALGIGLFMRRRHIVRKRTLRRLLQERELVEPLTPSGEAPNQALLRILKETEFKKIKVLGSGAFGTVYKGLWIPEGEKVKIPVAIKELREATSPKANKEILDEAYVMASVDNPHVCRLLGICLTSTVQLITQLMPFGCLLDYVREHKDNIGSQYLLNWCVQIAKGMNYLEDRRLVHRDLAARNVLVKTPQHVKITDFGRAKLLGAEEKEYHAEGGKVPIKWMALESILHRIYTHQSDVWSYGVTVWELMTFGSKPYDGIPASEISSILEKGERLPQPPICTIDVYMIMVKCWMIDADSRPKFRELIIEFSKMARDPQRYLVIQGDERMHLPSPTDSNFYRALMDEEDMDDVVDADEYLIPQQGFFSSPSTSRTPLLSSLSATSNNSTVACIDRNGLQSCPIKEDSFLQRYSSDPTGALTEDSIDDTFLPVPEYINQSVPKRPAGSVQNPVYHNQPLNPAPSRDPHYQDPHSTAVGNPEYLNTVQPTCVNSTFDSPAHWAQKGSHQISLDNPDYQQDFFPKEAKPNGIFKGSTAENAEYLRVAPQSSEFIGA
Chain of EGFR (L858R/C797S) (P00533 25-1210 C797S/L858R): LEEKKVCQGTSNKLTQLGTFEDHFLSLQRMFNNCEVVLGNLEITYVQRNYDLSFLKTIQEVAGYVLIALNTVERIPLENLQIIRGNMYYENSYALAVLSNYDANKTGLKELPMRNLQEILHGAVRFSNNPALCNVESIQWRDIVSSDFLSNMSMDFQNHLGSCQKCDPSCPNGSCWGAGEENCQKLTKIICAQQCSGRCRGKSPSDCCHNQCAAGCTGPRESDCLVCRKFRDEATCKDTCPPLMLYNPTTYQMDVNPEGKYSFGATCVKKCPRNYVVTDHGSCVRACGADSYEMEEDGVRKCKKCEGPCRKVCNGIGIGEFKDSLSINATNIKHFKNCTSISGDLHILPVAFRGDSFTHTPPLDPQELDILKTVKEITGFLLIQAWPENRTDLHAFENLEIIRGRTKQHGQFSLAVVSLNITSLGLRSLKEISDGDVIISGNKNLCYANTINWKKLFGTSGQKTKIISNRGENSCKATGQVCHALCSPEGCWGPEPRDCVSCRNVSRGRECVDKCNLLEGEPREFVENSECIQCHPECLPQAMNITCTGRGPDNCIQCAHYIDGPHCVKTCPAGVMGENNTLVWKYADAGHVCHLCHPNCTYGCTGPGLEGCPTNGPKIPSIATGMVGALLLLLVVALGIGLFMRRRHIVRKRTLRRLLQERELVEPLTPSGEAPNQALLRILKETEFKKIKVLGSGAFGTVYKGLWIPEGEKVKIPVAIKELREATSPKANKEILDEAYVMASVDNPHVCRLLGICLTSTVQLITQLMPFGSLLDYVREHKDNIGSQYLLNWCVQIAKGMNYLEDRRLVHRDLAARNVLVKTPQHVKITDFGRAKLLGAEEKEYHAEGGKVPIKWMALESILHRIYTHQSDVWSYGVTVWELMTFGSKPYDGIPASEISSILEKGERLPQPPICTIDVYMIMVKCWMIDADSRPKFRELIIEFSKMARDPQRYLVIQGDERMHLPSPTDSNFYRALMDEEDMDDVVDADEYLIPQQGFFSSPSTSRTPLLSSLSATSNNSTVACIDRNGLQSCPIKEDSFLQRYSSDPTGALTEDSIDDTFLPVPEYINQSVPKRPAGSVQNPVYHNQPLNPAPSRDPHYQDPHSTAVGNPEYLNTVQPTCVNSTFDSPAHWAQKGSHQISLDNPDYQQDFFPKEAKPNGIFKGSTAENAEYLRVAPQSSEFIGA

IC50 [1] | IC50 [2] | IC50 [3] | IC50 [4] | GI50 [5] | GI50 [6] | GI50 [7] | GI50 [8] | IC50 [9] | SMILES
71.6 nM | > 100 nM | > 100 nM | > 100 nM | – | – | – | – | – | COc1cccc(-c2nccc(Nc3cc4c(C(C)C)ccc(N5CC(CS(C)(=O)=O)C5)c4cn3)n2)n1 [Compound H2]
0.3 nM | 2.1 nM | 6.1 nM | 2.9 nM | 146 nM | 628 nM | 46 nM | 39 nM | – | CC(C)c1ccc(N2CC(CC(N)=O)C2)c2cnc(Nc3ccnc(-c4cnn(S(=O)(=O)C5CC5)c4)n3)cc12 [Compound H4]
0.43 nM | 4.6 nM | 10.2 nM | 1.9 nM | – | – | – | – | – | CC(C)n1c(=O)cc(N2CC(CS(C)(=O)=O)C2)c2cnc(Nc3ccnc(-c4cnn(S(=O)(=O)C5CC5)c4)n3)cc21 [Compound H5]
6.7 nM | 43 nM | > 100 nM | > 100 nM | – | – | – | – | – | CC(C)c1ccc(N2CC3(CC(S(C)(=O)=O)C3)C2)c2cnc(Nc3ccnc(N4CCC(O)C(F)C4)n3)cc12 (centres unmarked) [Compound P2]
0.71 nM | 5.8 nM | 17.9 nM | 10.6 nM | 248 nM | 889 nM | 55 nM | 43 nM | – | CC(C)c1ccc(N2CC3(CC(S(C)(=O)=O)C3)C2)c2cnc(Nc3ccnc(-c4cnn(S(=O)(=O)C5CC5)c4)n3)cc12 [Compound P3]
4.6 nM | 43.3 nM | > 100 nM | > 100 nM | – | – | – | – | – | CC(C)c1ccc(N2CC3(CC(S(C)(=O)=O)C3)C2)c2cnc(Nc3ccnc(N4CCC(O)CC4)n3)cc12 [Compound P4]
7.1 nM | > 100 nM | > 100 nM | > 100 nM | – | – | – | – | – | CC(C)c1cc(C(F)(F)F)c(N2CC3(CC(CS(C)(=O)=O)C3)C2)c2cnc(Nc3ccnc(N4CCC(O)C(F)C4)n3)cc12 (centres unmarked) [Compound P5]
6.1 nM | 45.2 nM | > 100 nM | 89.8 nM | – | – | – | – | – | CC(C)c1ccc(N2CC(NS(C)(=O)=O)C2)c2cnc(Nc3ccnc(N4CCC(O)CC4)c3)nc12 [Compound P6]
0.21 nM | 14 nM | 50.5 nM | 22 nM | 554 nM | 7380 nM | 771 nM | 271 nM | – | CC(C)c1ccc(N2CC(CC(N)=O)C2)c2cnc(Nc3ccnc(N4CCC(O)C(F)C4)n3)cc12 (centres unmarked) [Compound P7]
0.97 nM | 67.8 nM | > 100 nM | 83.3 nM | – | – | – | – | – | CC(C)c1ccc(N2CC(CS(C)(=O)=O)C2(C)C)c2cnc(Nc3ccnc(N4CCC(O)C(F)C4)n3)cc12 (centres unmarked) [Compound P8]
3.4 nM | > 100 nM | > 100 nM | > 100 nM | – | – | – | – | – | CC(C)c1ccc(N2CC(CP(C)(C)=O)C2)c2cnc(Nc3ccnc(N4CCC(O)C(F)C4)n3)cc12 (centres unmarked) [Compound P9]
4.8 nM | > 100 nM | > 100 nM | > 100 nM | – | – | – | – | – | CC(C)c1ccc(N2CC3(C2)CN(S(C)(=O)=O)C3)c2cnc(Nc3ccnc(N4CCC(O)C(F)C4)n3)cc12 (centres unmarked) [Compound P11]
1.9 nM | > 100 nM | > 100 nM | > 100 nM | – | – | – | – | – | CC(C)c1ccc(N2CC(c3cccnc3)C2)c2cnc(Nc3ccnc(N4CCC(O)C(F)C4)n3)cc12 (centres unmarked) [Compound P12]
1 nM | 31.2 nM | > 100 nM | 34.5 nM | – | – | – | – | – | CC(C)n1c(=O)cc(N2CC(CS(C)(=O)=O)C2)c2cnc(Nc3ccnc(N4CCC(O)CC4)n3)cc21 [Compound P13]
0.12 nM | 9.5 nM | 80.7 nM | 11.8 nM | – | – | – | – | – | CC(C)n1c(=O)cc(N2CC(CS(C)(=O)=O)C2)c2cnc(Nc3ccnc(N4CCC(O)C(F)C4)n3)cc21 (centres unmarked) [Compound P14]
1.7 nM | 98.9 nM | > 100 nM | > 100 nM | – | – | – | – | – | CNC(=O)CN1CC(c2ccc(C(C)C)c3cc(Nc4ccnc(N5CCC(O)C(F)C5)n4)ncc23)C1 (centres unmarked) [Compound P15]
1.6 nM | 73.4 nM | > 100 nM | > 100 nM | – | – | – | – | – | CC(C)c1ccc(N2CC(C[S+](C)[O-])C2)c2cnc(Nc3ccnc(N4CCC(O)C(F)C4)n3)cc12 (centres unmarked) [Compound P17]
3.4 nM | > 100 nM | > 100 nM | > 100 nM | – | – | – | – | – | CC(C)n1c(=O)nc(N2CC(CS(C)(=O)=O)C2)c2cnc(Nc3ccnc(N4CCC(O)C(F)C4)n3)cc21 (centres unmarked) [Compound P19]
0.42 nM | 20.5 nM | 90.9 nM | 43.1 nM | – | – | – | – | – | CNC(=O)CC1CN(c2ccc(C(C)C)c3cc(Nc4ccnc(N5CCC(O)C(F)C5)n4)ncc23)C1 (centres unmarked) [Compound P20]
3.2 nM | > 100 nM | > 100 nM | > 100 nM | – | – | – | – | – | CC(C)c1ccc(N2CC(c3ccc[nH]c3=O)C2)c2cnc(Nc3ccnc(N4CCC(O)C(F)C4)n3)cc12 (centres unmarked) [Compound P22]
0.11 nM | 7.8 nM | 33.8 nM | 8.2 nM | – | – | – | – | – | CC(C)c1ccc(N2CC(NS(=O)(=O)C3CC3)C2)c2cnc(Nc3ccnc(N4CCC(O)C(F)C4)n3)cc12 (centres unmarked) [Compound P23]
0.13 nM | – | 41.2 nM | 10.4 nM | 57 nM | 3440 nM | 128 nM | 63 nM | 283 nM | COC1CCN(c2nccc(Nc3cc4c(cn3)c(N3CC(CS(C)(=O)=O)C3)cc(=O)n4C(C)C)n2)CC1F (centres unmarked) [Compound P24]
30.9 nM | > 100 nM | > 100 nM | > 100 nM | – | – | – | – | – | CC(C)c1ccc(N2C[C@@H](NS(C)(=O)=O)[C@@H]2C)c2cnc(Nc3ccnc(N4CCC(O)C(F)C4)n3)cc12 (some centres unmarked) [Compound P26]
0.34 nM | 13 nM | 64 nM | 27 nM | – | – | – | – | – | CC(C)c1ccc(N2CC(NS(=O)(=O)c3cccnc3)C2)c2cnc(Nc3ccnc(N4CCC(O)C(F)C4)n3)cc12 (centres unmarked) [Compound P28]

SMILES | IC50 [1] | IC50 [2] | IC50 [3] | IC50 [4] | GI50 [5] | GI50 [6] | GI50 [7] | GI50 [8] | IC50 [9]
CC(C)c1ccc(N2CC(NC(=O)N(C)C)C2)c2cnc(Nc3ccnc(N4CCC(O)C(F)C4)n3)cc12 (centres unmarked) [Compound P10] | 0.56 nM | 43.2 nM | > 100 nM | 41 nM | – | – | – | – | –
